Reference: PubChem BioAssay (NCI)
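Protocol summary: plate cells (96-well), add compound at 5 concentrations, incubate 48 h, interpolate endpoints linearly. TGI marks complete inhibition of growth.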

What was measured:
Test in all cases: inhibition of tumour cell growth, NCI panel, 48 h
HCT-15 colon = system: HCT-15 colon
786-0 renal = system: 786-0 renal
HS 578T breast = system: HS 578T breast
NCI-H522 lung = system: NCI-H522 lung
BT-549 breast = system: BT-549 breast
SNB-19 CNS = system: SNB-19 CNS
KM12 colon = system: KM12 colon
COLO 205 colon = system: COLO 205 colon
SF-295 CNS = system: SF-295 CNS
MDA-MB-231 breast = system: MDA-MB-231 breast
MDA-N = system: MDA-N
NCI-H226 lung = system: NCI-H226 lung
A498 renal = system: A498 renal
SN12C renal = system: SN12C renal
MALME-3M melanoma = system: MALME-3M melanoma
OVCAR-4 ovarian = system: OVCAR-4 ovarian
UACC-62 melanoma = system: UACC-62 melanoma
MDA-MB-435 = system: MDA-MB-435
SK-OV-3 ovarian = system: SK-OV-3 ovarian
SF-268 CNS = system: SF-268 CNS
CCRF-CEM leukemia = system: CCRF-CEM leukemia
SK-MEL-5 melanoma = system: SK-MEL-5 melanoma
MCF7 breast = system: MCF7 breast
LOX IMVI melanoma = system: LOX IMVI melanoma
MOLT-4 leukemia = system: MOLT-4 leukemia
SK-MEL-28 melanoma = system: SK-MEL-28 melanoma
RPMI-8226 leukemia = system: RPMI-8226 leukemia
SW-620 colon = system: SW-620 colon
EKVX NSCLC = system: EKVX NSCLC
NCI/ADR-RES ovarian = system: NCI/ADR-RES ovarian
CAKI-1 renal = system: CAKI-1 renal
SK-MEL-2 melanoma = system: SK-MEL-2 melanoma
PC-3 prostate = system: PC-3 prostate
A549 NSCLC = system: A549 NSCLC
U251 CNS = system: U251 CNS
T-47D breast = system: T-47D breast
SF-539 CNS = system: SF-539 CNS
HOP-62 NSCLC = system: HOP-62 NSCLC
SNB-75 CNS = system: SNB-75 CNS
IGROV1 ovarian = system: IGROV1 ovarian
DU-145 prostate = system: DU-145 prostate
OVCAR-5 ovarian = system: OVCAR-5 ovarian
HT29 colon = system: HT29 colon
ACHN renal = system: ACHN renal
OVCAR-8 ovarian = system: OVCAR-8 ovarian
HOP-92 NSCLC = system: HOP-92 NSCLC
NCI-H23 lung = system: NCI-H23 lung
HCT-116 colon = system: HCT-116 colon
TK-10 renal = system: TK-10 renal
UACC-257 melanoma = system: UACC-257 melanoma
M14 melanoma = system: M14 melanoma
HCC-2998 colon = system: HCC-2998 colon
SR leukemia = system: SR leukemia
OVCAR-3 ovarian = system: OVCAR-3 ovarian
NCI-H460 lung = system: NCI-H460 lung
HL-60(TB) leukemia = system: HL-60(TB) leukemia
LXFL 529 NSCLC = system: LXFL 529 NSCLC
UO-31 renal = system: UO-31 renal
SNB-78 CNS = system: SNB-78 CNS
K-562 leukemia = system: K-562 leukemia
DMS 273 small cell lung = system: DMS 273 small cell lung
DMS 114 small cell lung = system: DMS 114 small cell lung
M19-MEL melanoma = system: M19-MEL melanoma
KM20L2 colon = system: KM20L2 colon

## Cc1ccc(OCC2OC(n3cnc4nc(N)nc(Cl)c43)CC2Oc2ccc(C)cc2)cc1 (stereo unspecified)
HCT-15 colon
  TGI: 59.3 µM
786-0 renal
  TGI: > 100 µM
HS 578T breast
  TGI: 45.6 µM
NCI-H522 lung
  TGI: 47.8 µM
BT-549 breast
  TGI: > 100 µM
SNB-19 CNS
  TGI: 30.4 µM
KM12 colon
  TGI: 44 µM
COLO 205 colon
  TGI: 36.4 µM
SF-295 CNS
  TGI: 84.1 µM
MDA-MB-231 breast
  TGI: > 100 µM
MDA-N
  TGI: 39.5 µM
NCI-H226 lung
  TGI: 47.5 µM
A498 renal
  TGI: 82.3 µM
SN12C renal
  TGI: 41.4 µM
MALME-3M melanoma
  TGI: 69.2 µM
OVCAR-4 ovarian
  TGI: > 100 µM
UACC-62 melanoma
  TGI: > 100 µM
MDA-MB-435
  TGI: > 100 µM
SK-OV-3 ovarian
  TGI: > 100 µM
SF-268 CNS
  TGI: 44.6 µM
CCRF-CEM leukemia
  TGI: > 100 µM
SK-MEL-5 melanoma
  TGI: 41.3 µM
MCF7 breast
  TGI: 49 µM
LOX IMVI melanoma
  TGI: > 100 µM
MOLT-4 leukemia
  TGI: 52.7 µM
SK-MEL-28 melanoma
  TGI: > 100 µM
RPMI-8226 leukemia
  TGI: 56.5 µM
SW-620 colon
  TGI: > 100 µM
EKVX NSCLC
  TGI: 69.4 µM
NCI/ADR-RES ovarian
  TGI: 47.2 µM
CAKI-1 renal
  TGI: 23.6 µM
SK-MEL-2 melanoma
  TGI: 37.7 µM
PC-3 prostate
  TGI: 44.6 µM
A549 NSCLC
  TGI: 58.3 µM
U251 CNS
  TGI: > 100 µM
T-47D breast
  TGI: 34.7 µM
SF-539 CNS
  TGI: > 100 µM
HOP-62 NSCLC
  TGI: 52.6 µM
SNB-75 CNS
  TGI: 30.4 µM
IGROV1 ovarian
  TGI: 44.8 µM
DU-145 prostate
  TGI: 35.9 µM
OVCAR-5 ovarian
  TGI: 39.7 µM
HT29 colon
  TGI: 71.1 µM
ACHN renal
  TGI: 35 µM
OVCAR-8 ovarian
  TGI: 50 µM
HOP-92 NSCLC
  TGI: 70 µM
NCI-H23 lung
  TGI: 36.9 µM
HCT-116 colon
  TGI: > 100 µM
TK-10 renal
  TGI: > 100 µM
UACC-257 melanoma
  TGI: > 100 µM
M14 melanoma
  TGI: 41.2 µM
HCC-2998 colon
  TGI: 33.6 µM
SR leukemia
  TGI: > 100 µM
OVCAR-3 ovarian
  TGI: 41 µM
NCI-H460 lung
  TGI: 97 µM

## N/N=C(/C(=O)Nc1cccc(Cl)c1)C(C(=O)c1ccc(O)cc1O)C1OC(=O)c2ccccc21 (stereo unspecified)
HCT-15 colon
  TGI: > 100 µM
HL-60(TB) leukemia
  TGI: > 100 µM
786-0 renal
  TGI: > 100 µM
NCI-H522 lung
  TGI: > 100 µM
SNB-19 CNS
  TGI: > 100 µM
KM12 colon
  TGI: > 100 µM
COLO 205 colon
  TGI: > 100 µM
SF-295 CNS
  TGI: > 100 µM
LXFL 529 NSCLC
  TGI: > 100 µM
NCI-H226 lung
  TGI: > 100 µM
A498 renal
  TGI: > 100 µM
SN12C renal
  TGI: > 100 µM
MALME-3M melanoma
  TGI: > 100 µM
OVCAR-4 ovarian
  TGI: > 100 µM
UACC-62 melanoma
  TGI: > 100 µM
SK-OV-3 ovarian
  TGI: > 100 µM
UO-31 renal
  TGI: > 100 µM
SF-268 CNS
  TGI: > 100 µM
CCRF-CEM leukemia
  TGI: > 100 µM
SK-MEL-5 melanoma
  TGI: > 100 µM
LOX IMVI melanoma
  TGI: > 100 µM
MOLT-4 leukemia
  TGI: > 100 µM
SK-MEL-28 melanoma
  TGI: > 100 µM
SNB-78 CNS
  TGI: > 100 µM
RPMI-8226 leukemia
  TGI: > 100 µM
SW-620 colon
  TGI: > 100 µM
EKVX NSCLC
  TGI: > 100 µM
SK-MEL-2 melanoma
  TGI: > 100 µM
K-562 leukemia
  TGI: > 100 µM
A549 NSCLC
  TGI: > 100 µM
U251 CNS
  TGI: > 100 µM
DMS 273 small cell lung
  TGI: > 100 µM
SF-539 CNS
  TGI: > 100 µM
DMS 114 small cell lung
  TGI: > 100 µM
M19-MEL melanoma
  TGI: > 100 µM
HOP-62 NSCLC
  TGI: > 100 µM
IGROV1 ovarian
  TGI: > 100 µM
OVCAR-5 ovarian
  TGI: > 100 µM
HT29 colon
  TGI: > 100 µM
ACHN renal
  TGI: > 100 µM
OVCAR-8 ovarian
  TGI: > 100 µM
NCI-H23 lung
  TGI: > 100 µM
HCT-116 colon
  TGI: > 100 µM
TK-10 renal
  TGI: > 100 µM
UACC-257 melanoma
  TGI: > 100 µM
M14 melanoma
  TGI: > 100 µM
HCC-2998 colon
  TGI: > 100 µM
SR leukemia
  TGI: > 100 µM
OVCAR-3 ovarian
  TGI: > 100 µM
NCI-H460 lung
  TGI: > 100 µM
KM20L2 colon
  TGI: > 100 µM
